{
  "source": "paper PMC12296705",
  "about": "“In Vivo and Bioinformatics Evaluation of Nine Traditional Chinese Medicine Compounds Targeting Acetylcholinesterase and Butyrylcholinesterase Enzymes in Alzheimer’s Disease” (Iranian Journal of Pharmaceutical Research : IJPR, 2025)",
  "key": {"[1]": {"target": "T1, butyrylcholinesterase (BuChE) (Homo sapiens, UniProt P06276)", "T1 construct": "purchased MyBiosource, CA, and USA MBS846801", "T1 sequence (P06276 29-602)": "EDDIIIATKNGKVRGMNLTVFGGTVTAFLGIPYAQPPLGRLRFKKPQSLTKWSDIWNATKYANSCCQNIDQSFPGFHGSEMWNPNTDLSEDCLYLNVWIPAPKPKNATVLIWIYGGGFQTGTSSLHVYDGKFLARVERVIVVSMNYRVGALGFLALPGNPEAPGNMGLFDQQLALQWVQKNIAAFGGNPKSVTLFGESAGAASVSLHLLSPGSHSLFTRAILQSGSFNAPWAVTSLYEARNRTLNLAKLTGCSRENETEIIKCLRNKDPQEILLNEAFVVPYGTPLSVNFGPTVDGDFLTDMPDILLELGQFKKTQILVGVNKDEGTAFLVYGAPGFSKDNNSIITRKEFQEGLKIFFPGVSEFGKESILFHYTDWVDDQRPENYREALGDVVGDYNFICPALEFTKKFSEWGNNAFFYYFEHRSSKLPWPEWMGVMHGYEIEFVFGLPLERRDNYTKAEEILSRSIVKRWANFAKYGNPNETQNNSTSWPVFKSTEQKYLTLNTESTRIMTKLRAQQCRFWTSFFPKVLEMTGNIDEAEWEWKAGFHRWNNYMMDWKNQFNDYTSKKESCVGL", "experiment": "biochemical", "procedure": "(§1) The in vitro AChE and BuChE inhibitory effects and selectivity of nine TCM compounds were evaluated using the QuantiChrom^TM AChE inhibitor screening kit (IACE-100, bioassay systems, USA) for AChE inhibition and the BuChE activity kit (catalog # MBS846801, MyBiosource, CA, USA) for BuChE inhibition. […] The QuantiChrom^TM kit was used to assess the activity of AChE and BuChE by recording enzymatic activity at different concentrations of the test compounds and comparing it to activity without inhibitors, followed by plotting dose-response curves. The experimental data were fitted by nonlinear regression analysis to yield IC50 values. The selectivity of the compounds for AChE relative to BuChE was determined by calculating the Selectivity Index (SI) using the formula BuChE IC50 values are divided by AChE IC50 values to obtain SI."}, "[2]": {"target": "T2, acetylcholinesterase (AChE) (Homo sapiens, UniProt P22303)", "T2 construct": "purchased bioassay systems, USA IACE-100", "T2 sequence (P22303 32-614)": "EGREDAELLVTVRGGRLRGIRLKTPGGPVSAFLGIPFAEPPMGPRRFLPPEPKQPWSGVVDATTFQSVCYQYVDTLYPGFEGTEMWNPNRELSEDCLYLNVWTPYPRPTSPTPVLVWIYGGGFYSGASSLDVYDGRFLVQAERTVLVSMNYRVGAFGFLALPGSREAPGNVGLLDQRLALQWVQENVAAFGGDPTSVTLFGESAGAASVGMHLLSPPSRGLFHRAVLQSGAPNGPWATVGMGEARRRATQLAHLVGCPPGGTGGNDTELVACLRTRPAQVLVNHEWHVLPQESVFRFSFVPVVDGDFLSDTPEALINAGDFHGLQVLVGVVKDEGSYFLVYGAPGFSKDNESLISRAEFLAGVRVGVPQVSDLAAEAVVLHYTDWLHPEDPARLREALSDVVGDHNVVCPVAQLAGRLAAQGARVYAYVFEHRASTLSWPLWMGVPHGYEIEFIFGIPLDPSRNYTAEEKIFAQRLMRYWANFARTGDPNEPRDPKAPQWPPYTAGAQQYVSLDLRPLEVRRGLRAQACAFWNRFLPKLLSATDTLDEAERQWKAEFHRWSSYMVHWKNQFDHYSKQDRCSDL", "experiment": "biochemical", "conditions": "for IC50: mean ± SD, n = 3, each in triplicate", "procedure": "as §1"}, "[3]": {"target": "T3, butyrylcholinesterase (BuChE) (Rattus norvegicus, UniProt Q9JKC1)", "T3 construct": "The tissues were then homogenized, processed for biochemical analysis; from tissue; host or cells: brain of male Wistar rats (cerebellum, cerebral cortex, hippocampus homogenates)", "T3 sequence (Q9JKC1 24-597)": "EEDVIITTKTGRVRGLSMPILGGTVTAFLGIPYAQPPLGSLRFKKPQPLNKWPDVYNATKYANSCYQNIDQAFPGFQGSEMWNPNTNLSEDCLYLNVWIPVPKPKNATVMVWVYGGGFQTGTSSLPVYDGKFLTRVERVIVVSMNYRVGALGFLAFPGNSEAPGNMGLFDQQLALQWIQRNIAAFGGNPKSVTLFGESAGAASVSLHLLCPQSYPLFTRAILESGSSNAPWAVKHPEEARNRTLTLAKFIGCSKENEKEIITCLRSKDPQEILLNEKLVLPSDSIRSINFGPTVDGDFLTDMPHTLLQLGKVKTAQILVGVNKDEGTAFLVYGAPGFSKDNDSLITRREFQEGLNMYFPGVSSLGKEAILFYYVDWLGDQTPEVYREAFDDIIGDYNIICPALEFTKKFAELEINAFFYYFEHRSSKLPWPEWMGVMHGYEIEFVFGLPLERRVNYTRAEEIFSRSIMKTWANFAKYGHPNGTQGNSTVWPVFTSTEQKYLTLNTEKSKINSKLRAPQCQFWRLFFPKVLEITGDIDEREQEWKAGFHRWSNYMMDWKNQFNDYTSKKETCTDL", "experiment": "BuChE levels in LA-AD rats", "type": "in vivo", "conditions": "1 mg/kg IP for 15 days", "procedure": "(§2) Fifty male Wistar rats (n = 50) were obtained from a certified animal facility, Shenzhen Bay Laboratory (SZBL) Laboratory Animal Platform, China. The rats were acclimatized to the laboratory environment for one week prior to the experiment. During this period, they were kept in standard polypropylene cages for rodents under controlled conditions, with a room temperature of 22°C, relative humidity of 50%, and a 12-hour light-dark cycle, with lights on from 06:00 to 18:00. The rats had ad libitum access to a standard rodent diet and filtered water to ensure optimal health and hydration. Routine monitoring of housing conditions was conducted to ensure compliance with ethical standards. To establish an AD model, the rats underwent intraperitoneal (IP) administration with lead acetate-induced AD (LA-AD, 50 mg/kg) for 15 days to mimic the neurodegenerative features of AD.\nFollowing AD induction, the rats were randomly divided into five groups: (1) Group I (control): DMSO contained in drinking water at a 5% concentration, without neurotoxic effects, in normal rats; (2) group II (LA-AD): The LA-AD rats for 15 days; […]. […]\n(§3) A 12-hour fasting period was imposed on the rats immediately after the final dose of treatment to minimize the effect of recent food intake on blood parameters. […] The toxicological effects of the treatment were assessed through analysis of blood lead concentrations. […]"}, "[4]": {"test_system": "lead acetate-induced AD (LA-AD) rats", "experiment": "Lipid peroxidation (MDA) in brain tissue of LA-AD rats", "type": "in vivo, rat", "conditions": "1 mg/kg IP for 15 days, compared to the LA-AD group", "experimental": "The rats were acclimatized to the laboratory environment for one week prior to the experiment. During this period, they were kept in standard polypropylene cages for rodents under controlled conditions, with a room temperature of 22°C, relative humidity of 50%, and a 12-hour light-dark cycle, with lights on from 06:00 to 18:00. […] Routine monitoring of housing conditions was conducted to ensure compliance with ethical standards. To establish an AD model, the rats underwent intraperitoneal (IP) administration with lead acetate-induced AD (LA-AD, 50 mg/kg) for 15 days to mimic the neurodegenerative features of AD.\nFollowing 28 days of exposure, the rats were euthanized by cervical decapitation, and their brains were removed to minimize tissue damage. The brains were dissected into specific regions, including the cerebellum and cerebral cortex, for deeper analysis. The cerebellum, cerebral cortex, and hippocampus were isolated in sodium chloride solution and washed with ice-cold solution. The tissues were then homogenized, processed for biochemical analysis, and submerged in ice-cold 0.1 M phosphate buffer. […]\nThe reaction mixtures were then transferred into centrifuge tubes and centrifuged at 3800 × g for 25 minutes. […] After cooling, the absorbance of the samples was measured at 530 nm using a spectrophotometer (BIOBASE BK-UV1800PC, China)."}, "[5]": {"target": "T4, Acetylcholinesterase (AChE) (Rattus norvegicus, UniProt P37136)", "T4 construct": "The tissues were then homogenized, processed for biochemical analysis; from tissue; host or cells: brain of male Wistar rats (cerebellum, cerebral cortex, hippocampus homogenates)", "T4 sequence (P37136 32-614)": "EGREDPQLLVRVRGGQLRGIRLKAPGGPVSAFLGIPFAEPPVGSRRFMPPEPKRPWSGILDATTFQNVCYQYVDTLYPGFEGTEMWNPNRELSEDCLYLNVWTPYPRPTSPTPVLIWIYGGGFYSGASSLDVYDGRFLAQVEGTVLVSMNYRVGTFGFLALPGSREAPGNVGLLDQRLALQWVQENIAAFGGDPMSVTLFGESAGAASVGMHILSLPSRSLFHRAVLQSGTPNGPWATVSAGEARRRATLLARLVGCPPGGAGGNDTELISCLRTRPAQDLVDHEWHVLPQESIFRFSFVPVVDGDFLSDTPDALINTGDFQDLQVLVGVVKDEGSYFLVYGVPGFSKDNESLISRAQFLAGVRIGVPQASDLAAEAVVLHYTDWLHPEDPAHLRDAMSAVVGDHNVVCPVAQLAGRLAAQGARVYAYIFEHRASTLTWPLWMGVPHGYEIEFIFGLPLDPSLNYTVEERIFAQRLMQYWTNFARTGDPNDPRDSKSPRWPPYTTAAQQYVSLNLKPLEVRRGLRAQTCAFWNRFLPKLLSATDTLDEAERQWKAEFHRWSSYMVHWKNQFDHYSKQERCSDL", "experiment": "AChE levels in LA-AD rats", "type": "in vivo", "conditions": "1 mg/kg IP for 15 days", "procedure": "as §2\nFollowing AD induction, the rats were randomly divided into five groups: (1) Group I (control): DMSO contained in drinking water at a 5% concentration, without neurotoxic effects, in normal rats; (2) group II (LA-AD): The LA-AD rats for 15 days; […]. […]. […]\nas §3"}, "[6]": {"test_system": "lead acetate-induced AD (LA-AD) rats", "experiment": "Glutathione (GSH) content in brain tissue of LA-AD rats", "type": "in vivo, rat", "conditions": "1 mg/kg IP for 15 days, compared to the LA-AD group", "experimental": "Fifty male Wistar rats (n = 50) were obtained from a certified animal facility, Shenzhen Bay Laboratory (SZBL) Laboratory Animal Platform, China. The rats were acclimatized to the laboratory environment for one week prior to the experiment. During this period, they were kept in standard polypropylene cages for rodents under controlled conditions, with a room temperature of 22°C, relative humidity of 50%, and a 12-hour light-dark cycle, with lights on from 06:00 to 18:00. […] Routine monitoring of housing conditions was conducted to ensure compliance with ethical standards. To establish an AD model, the rats underwent intraperitoneal (IP) administration with lead acetate-induced AD (LA-AD, 50 mg/kg) for 15 days to mimic the neurodegenerative features of AD.\nA 12-hour fasting period was imposed on the rats immediately after the final dose of treatment to minimize the effect of recent food intake on blood parameters. […] Following 28 days of exposure, the rats were euthanized by cervical decapitation, and their brains were removed to minimize tissue damage. The brains were dissected into specific regions, including the cerebellum and cerebral cortex, for deeper analysis. […]\nGlutathione (GSH) levels in cerebral tissue were quantified by extracting proteins from the homogenate. […]"}, "[7]": {"conditions": "mean ± SD, n = 3, each in triplicate, read-out: IC50 BuChE"}, "[8]": {"conditions": "BuChE IC50 divided by AChE IC50"}},
  "note": "Like-named read-outs stand apart in the source and are kept apart here.",
  "data": [
    {"compound": "COC(=O)C1=CO[C@@H](O[C@@H]2O[C@H](CO)[C@@H](O)[C@H](O)[C@H]2O)[C@@H]2[C@H](C)O[C@@H](O)C[C@H]12", "note": "[Morroniside]", "values": [
      {"measurement": "IC50", "setting": "[1]; [7]", "value": "0.0182 ± 0.00212", "unit": "µM"},
      {"measurement": "IC50", "setting": "[2]", "value": "0.0416 ± 0.00202", "unit": "µM"}
    ]},
    {"compound": "O=c1cc(-c2ccccc2)oc2c(O)c(O)cc(O)c12", "note": "[Norwogonin]", "values": [
      {"measurement": "BuChE activity", "setting": "[3]", "value": "significantly decreased"},
      {"measurement": "Malondialdehyde (MDA) levels", "setting": "[4]", "value": "significantly reduced"},
      {"measurement": "IC50", "setting": "[1]; [7]", "value": 0.0152, "unit": "µM"},
      {"measurement": "IC50", "setting": "[2]", "value": 0.0336, "unit": "µM"},
      {"measurement": "AChE activity", "setting": "[5]", "value": "significantly decreased"},
      {"measurement": "Glutathione (GSH) levels", "setting": "[6]", "value": "significantly increased"}
    ]},
    {"compound": "Asiaticoside", "values": [
      {"measurement": "BuChE/AChE Selectivity", "setting": "[2]; [8]", "value": 1.17}
    ]},
    {"compound": "CC1(C)C=Cc2c(cc3occ(-c4ccc(O)cc4)c(=O)c3c2O)O1", "note": "[Alpinumisoflavone]", "values": [
      {"measurement": "IC50", "setting": "[1]; [7]", "value": "0.0292 ± 0.0014", "unit": "µM"},
      {"measurement": "BuChE/AChE Selectivity", "setting": "[2]; [8]", "value": 0.32},
      {"measurement": "IC50", "setting": "[2]", "value": "0.0903 ± 0.00413", "unit": "µM"}
    ]},
    {"compound": "Cc1cc(=O)cc2c3c1CC1C4OC(=O)C(CC2)(C(C)C4O)C31", "note": "(stereo not shown) [Hainanolidol]", "values": [
      {"measurement": "BuChE activity", "setting": "[3]", "value": "significantly decreased"},
      {"measurement": "Malondialdehyde (MDA) levels", "setting": "[4]", "value": "significantly reduced"},
      {"measurement": "IC50", "setting": "[1]; [7]", "value": 0.0123, "unit": "µM"},
      {"measurement": "IC50", "setting": "[2]", "value": 0.0443, "unit": "µM"},
      {"measurement": "AChE activity", "setting": "[5]", "value": "significantly decreased"},
      {"measurement": "Glutathione (GSH) levels", "setting": "[6]", "value": "significantly increased"}
    ]},
    {"compound": "COc1cc2c3c(c1O)-c1c(ccc(OC)c1OC)C[C@@H]3NCC2", "note": "[Norcorydine]", "values": [
      {"measurement": "IC50", "setting": "[1]", "value": "0.102 ± 0.00313", "unit": "µM"},
      {"measurement": "IC50", "setting": "[2]", "value": "0.0872 ± 0.00412", "unit": "µM"}
    ]},
    {"compound": "COc1cc2c(c(OC)c1OC)-c1c(cc3c(c1OC)OCO3)CC(C)C(C)C2", "note": "(stereo not shown) [Schisandrin B]", "values": [
      {"measurement": "IC50", "setting": "[1]", "value": "0.0823 ± 0.00121", "unit": "µM"},
      {"measurement": "IC50", "setting": "[2]", "value": "0.0904 ± 0.00441", "unit": "µM"}
    ]},
    {"compound": "C=C1CCC[C@]2(C)C[C@]3(O)OC(=O)C(C)=C3C[C@@H]12", "note": "[Atractylenolide III]", "values": [
      {"measurement": "IC50", "setting": "[1]", "value": "0.0313 ± 0.00262", "unit": "µM"},
      {"measurement": "BuChE/AChE Selectivity", "setting": "[2]", "value": 0.38},
      {"measurement": "IC50", "setting": "[2]", "value": "0.0831 ± 0.00243", "unit": "µM"}
    ]}
  ]
}
